# Measured values published in patent publication US20100310563A1, “METHODS FOR TREATING INDUCED CELLULAR PROLIFERATIVE DISORDERS” (priority 2007, published 2010).
# Test system: phosphorylated JAK2 in GFP positive peripheral blood granulocytes of the JAK2V617F mouse
# Assay: FACS analysis of intracellular JAK2 phosphorylation in peripheral blood granulocytes
# Assay type: cell-based
# Settings: with IL-3 and G-CSF stimulation for 60 minutes, GFP-positive granulocytes of a JAK2V617F mouse, FIG. 4B bottom
# Experimental: White cells from bone marrow and spleen were resuspended in staining buffer (BD Biosciences). Aliquots of 1×10^6 cells were stained for 20 minutes with conjugated monoclonal antibodies. Cells were washed in staining buffer and analyzed by FACS. For FACS analysis of intracellular JAK2 phosphorylation, peripheral blood of one JAK2V617F mouse and three normal BALB/c mice were collected. WBC from normal BALB/c mice were pooled together. Cells were split into three aliquots and resuspended in RPMI 1640 (Life Technologies) containing 0.5% BSA and incubated for 15 hours. Following incubation, one aliquot was stimulated with 10 ng/mL IL-3 plus 10 ng/mL granulocyte colonystimulating factor (G-CSF; StemCell) and second aliquot was stimulated with 10 ng/mL IL3, 10 ng/mL G-CSF, and 10 Amol/L AG-490 (Calbiochem) for 60 minutes and third aliquot was left unstimulated. Cells ([…]) were resuspended in 50 AL staining buffer (1% BSA and 0.1% sodium azide in PBS) and permeabilized using Fix&Perm cell permeabilization kit (Caltag Laboratories, Burlingame, Calif. and An der Grub, Vienna, Austria). The granulocyte population was selected by forward and side scatter
# To test if the mutant JAK2V617F kinase in murine leukocytes is constitutively active, peripheral blood granulocytes was analyzed by FACS for phosphorylated JAK2. […]
smiles,measurement,value
N#C/C(=C/c1ccc(O)c(O)c1)C(=O)NCc1ccccc1 [AG490],phosphorylated JAK2 levels,reduced phosphorylated JAK2 levels below baseline
